Assay results as given in patent US5164513A, “Imidazole derivative” (SS Pharmaceutical Co., Ltd., priority 1987, dated 1992).
Values after ≈ are worked out from the molar mass of the structure shown.

Assays:
Assay type in all cases: cell-based
[1] = system: Sarcina lutea ATCC 9341; assay: Antimicrobial activity (MIC); details: Micrococcus luteus, ATCC9341
[2] = system: Epidermophyton floccosum IFO 9045; assay: Antimicrobial activity (MIC); details: IFO9045
[3] = system: Candida albicans NHL 4019; assay: Antimicrobial activity (MIC); details: NHL4019
[4] = system: Microsporum cookei IFO 8303; assay: Antimicrobial activity (MIC); details: Paraphyton cookei, IFO8303
[5] = system: Microsporum gypseum IFO 8231; assay: Antimicrobial activity (MIC); details: Nannizzia gypsea, IFO8231
[6] = system: Gibberella fujikuroi IAM 8046; assay: Antimicrobial activity (MIC); details: Fusarium fujikuroi, IAM8046
[7] = system: Saccharomyces ruxii 6507; assay: Antimicrobial activity (MIC)
[8] = system: Helminthosporium sesamum IAM 5012; assay: Antimicrobial activity (MIC); details: IAM5012
[9] = system: Pyricularia oryzae IAM 5016; assay: microbe, parasite or virus in culture; details: IAM5016
[10] = system: Aspergillus niger ATCC 9642; assay: Antimicrobial activity (MIC); details: ATCC9642
[11] = system: Staphylococcus aureus Terajima; assay: Antimicrobial activity (MIC)
[12] = system: Saccharomyces cerevisiae ATCC 9763; assay: Antimicrobial activity (MIC); details: ATCC9763
[13] = system: Aspergillus oryzae IMF 4014; assay: Antimicrobial activity (MIC); details: IMF4014
[14] = system: Penicillium chrysogenum ATCC 6010; assay: Antimicrobial activity (MIC); details: ATCC6010
[15] = system: Staphylococcus aureus Smith; assay: Antimicrobial activity (MIC)
[16] = system: Trichophyton mentagrophytes QM 248; assay: Antimicrobial activity (MIC); details: QM248
[17] = system: Trichophyton tonsurans IFO 5928; assay: Antimicrobial activity (MIC); details: IFO5928
[18] = system: Candida albicans Yu-1200; assay: Antimicrobial activity (MIC); details: YU1200
[19] = system: Fusarium moniliforme IAM 5062; assay: Antimicrobial activity (MIC); details: Fusarium verticillioides, IAM5062
[20] = system: Debaryomyces kloeckeri IFO 0015; assay: Antimicrobial activity (MIC); details: IFO0015
[21] = system: Trichophyton mentagrophytes IFO 5812; assay: Antimicrobial activity (MIC); details: IFO5812
[22] = system: Staphylococcus aureus FDA 209P; assay: Antimicrobial activity (MIC); details: FDA209P
[23] = system: Bacillus subtilis ATCC 6633; assay: Antimicrobial activity (MIC); details: ATCC6633
[24] = system: Microsporum audounii IFO 6074; assay: Antimicrobial activity (MIC); details: IFO6074
[25] = system: Staphylococcus epidermidis ATCC 12228; assay: Antimicrobial activity (MIC); details: ATCC12228
[26] = system: Trichophyton rubrum NHL J; assay: Antimicrobial activity (MIC)
[27] = system: Cladosporium fulvum IAM 5006; assay: Antimicrobial activity (MIC); details: Fulvia fulva, IAM5006
[28] = system: Streptococcus faecalis IFO 12964; assay: Antimicrobial activity (MIC); details: Enterococcus faecalis, IFO12964
[29] = system: Micrococcus lysodeikticus IFO 3333; assay: Antimicrobial activity (MIC); details: Micrococcus luteus, IFO3333

Row | SMILES | MIC [1] [µg/mL] | MIC [2] [µg/mL] | MIC [3] [µg/mL] | MIC [4] [µg/mL] | MIC [5] [µg/mL] | MIC [6] [µg/mL] | MIC [7] [µg/mL] | MIC [8] [µg/mL] | MIC [9] [µg/mL] | MIC [10] [µg/mL] | MIC [11] [µg/mL] | MIC [12] [µg/mL] | MIC [13] [µg/mL] | MIC [14] [µg/mL] | MIC [15] [µg/mL] | MIC [16] [µg/mL] | MIC [17] [µg/mL] | MIC [18] [µg/mL] | MIC [19] [µg/mL] | MIC [20] [µg/mL] | further results
1 | CCCCCCCCOc1ccccc1C(C)(O)Cn1ccnc1 (stereo not shown) [Compound 8] | 0.2 (≈ 0.605 µM) | 0.1 (≈ 0.303 µM) | 12.5 (≈ 37.8 µM) | 0.012 (≈ 0.0363 µM) | 0.006 (≈ 0.0182 µM) | 0.78 (≈ 2.36 µM) | 0.39 (≈ 1.18 µM) | < 0.006 | < 0.006 | 0.025 (≈ 0.0756 µM) | 3.12 (≈ 9.44 µM) | 0.025 (≈ 0.0756 µM) | < 0.006 | 3.12 (≈ 9.44 µM) | 3.12 (≈ 9.44 µM) | 0.006 (≈ 0.0182 µM) | < 0.006 | 12.5 (≈ 37.8 µM) | 3.12 (≈ 9.44 µM) | 3.12 (≈ 9.44 µM) | MIC [21]: < 0.006 µg/mL; MIC [22]: 3.12 µg/mL (≈ 9.44 µM); MIC [23]: 3.12 µg/mL (≈ 9.44 µM); MIC [24]: < 0.006 µg/mL; MIC [25]: 0.39 µg/mL (≈ 1.18 µM); MIC [26]: < 0.006 µg/mL; MIC [27]: 0.78 µg/mL (≈ 2.36 µM); MIC [28]: 6.25 µg/mL (≈ 18.9 µM); MIC [29]: 1.56 µg/mL (≈ 4.72 µM)
2 | CCCCCCCCCOc1ccccc1C(C)(O)Cn1ccnc1 (stereo not shown) [Compound 59] | 0.05 (≈ 0.145 µM) | 0.2 (≈ 0.581 µM) | 12.5 (≈ 36.3 µM) | 0.1 (≈ 0.29 µM) | < 0.006 | 1.56 (≈ 4.53 µM) | 0.78 (≈ 2.26 µM) | < 0.006 | < 0.006 | 0.1 (≈ 0.29 µM) | 6.25 (≈ 18.1 µM) | 12.5 (≈ 36.3 µM) | < 0.006 | 6.25 (≈ 18.1 µM) | 6.25 (≈ 18.1 µM) | < 0.006 | < 0.006 | 25 (≈ 72.6 µM) | 6.25 (≈ 18.1 µM) | 12.5 (≈ 36.3 µM) | MIC [21]: < 0.006 µg/mL; MIC [22]: 6.25 µg/mL (≈ 18.1 µM); MIC [23]: 6.25 µg/mL (≈ 18.1 µM); MIC [24]: < 0.006 µg/mL; MIC [25]: 1.56 µg/mL (≈ 4.53 µM); MIC [26]: < 0.006 µg/mL; MIC [27]: 1.56 µg/mL (≈ 4.53 µM); MIC [28]: 6.25 µg/mL (≈ 18.1 µM); MIC [29]: 1.56 µg/mL (≈ 4.53 µM)
